Laboratory results reported in patent US20240109900A1, “AZABICYCLIC SHP2 INHIBITORS” (IRBM S.P.A., priority 2021, published 2024).
pIC50: −log10 of the molar value. Read-outs that look alike come from different tables or passages of the source.

Legend:
[1] = target: SHP-2 enzyme (Met1-Leu525) (Homo sapiens (Human), UniProt Q06124); experiment: SHP2 inhibition enzymatic assay; format: biochemical; details: 0.5 nM SHP-2 activated by 500 nM IRS1 peptide, 75 μM DiFMUP substrate; read-out: SHP2wt-IC50
Sequence of SHP-2 enzyme (Met1-Leu525) (Q06124 1-525): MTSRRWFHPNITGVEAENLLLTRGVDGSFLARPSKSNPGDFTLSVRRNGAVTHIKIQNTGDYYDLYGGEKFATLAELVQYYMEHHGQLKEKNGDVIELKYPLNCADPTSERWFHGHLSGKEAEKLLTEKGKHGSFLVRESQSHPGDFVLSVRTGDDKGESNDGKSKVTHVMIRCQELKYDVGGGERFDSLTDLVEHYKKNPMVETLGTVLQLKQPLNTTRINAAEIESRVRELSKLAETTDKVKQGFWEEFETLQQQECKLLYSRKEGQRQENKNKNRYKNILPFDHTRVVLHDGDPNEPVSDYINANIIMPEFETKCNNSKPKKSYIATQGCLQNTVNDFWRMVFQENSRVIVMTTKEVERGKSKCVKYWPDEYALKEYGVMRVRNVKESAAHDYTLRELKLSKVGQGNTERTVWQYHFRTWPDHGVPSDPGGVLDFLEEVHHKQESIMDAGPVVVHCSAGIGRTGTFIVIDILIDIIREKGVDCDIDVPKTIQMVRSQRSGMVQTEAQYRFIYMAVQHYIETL
In short: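 Compounds were preincubated 30 min with 0.5 nM SHP-2 (Met1-Leu525) plus 500 nM IRS1 activating peptide (pH 7.2 HEPES, 5 mM DTT), then 75 μM DiFMUP substrate reacted 30 min at room temperature. After bpV quench, DiFMUP fluorescence gave % inhibition; four-parameter logistic fit yielded IC50.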

[2] = tested on: ERK phosphorylation in KYSE-520 cells; experiment: Phospho-ERK cellular assay; format: cell-based; details: KYSE-520 cells, 2 h at 37° C., phospho-ERK1/2 (Thr202/Tyr204) TR-FRET, read-out: PERK IC50
In short: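 TR-FRET read-out of ERK1/2 Thr202/Tyr204 phosphorylation was taken after overnight antibody incubation at room temperature. Before that, KYSE-520 cells were treated 2 h at 37 °C with compound dilutions and lysed 30 min. Percent inhibition relative to vehicle and cell-free wells was fitted four-parametrically to give IC50.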

pIC50 [1]	pIC50 ([2]; Homo sapiens, KYSE-520, 2 h)	pIC50 [2]	Structure (SMILES)
> 6.30	> 6.00		NC[C@]1(c2ccccc2F)[C@@H]2CCN(c3cnc4c(-c5cccc6ncccc56)n[nH]c4n3)C[C@@H]21 [Example 242, ((1S,6R,7R)-7-(2-fluorophenyl)-3-(3-(quinolin-5-yl)-1H-pyrazolo[3,4-b]pyrazin-6-yl)-3-azabicyclo[4.1.0]heptan-7-yl)methanamine]
5.52 to 6.30	5.30 to 6.00		Cc1cc([C@@]2(CN)[C@@H]3CCN(c4cnc5c(-c6ccnc7ccc(Cl)cc67)n[nH]c5n4)C[C@@H]32)no1 [Example 42, ((1S,6R,7S)-3-(3-(6-chloroquinolin-4-yl)-1H-pyrazolo[3,4-b]pyrazin-6-yl)-7-(5-methylisoxazol-3-yl)-3-azabicyclo[4.1.0]heptan-7-yl)methanamine]
> 6.30	> 6.00		NC[C@]1(c2ccccc2F)[C@@H]2CCN(c3cnc(Sc4ccnc(-n5cccn5)c4Cl)cn3)C[C@@H]21 [Example 388, ((1S,6R,7R)-3-(5-((3-chloro-2-(1H-pyrazol-1-yl)pyridin-4-yl)thio)pyrazin-2-yl)-7-(2-fluorophenyl)-3-azabicyclo[4.1.0]heptan-7-yl)methanamine]
> 6.30	> 6.00		Cc1c(-c2n[nH]c3nc(N4CC[C@@H]5[C@H](C4)[C@@]5(CN)c4ccccc4Cl)cnc23)ccc2nn(C)cc12 [Example 180, ((1S,6R,7R)-7-(2-chlorophenyl)-3-(3-(2,4-dimethyl-2H-indazol-5-yl)-1H-pyrazolo[3,4-b]pyrazin-6-yl)-3-azabicyclo[4.1.0]heptan-7-yl)methanamine]
> 6.30	> 6.00		Cc1cc(C2(CN)C3CCN(c4cnc5c(-c6ccc7scnc7c6)n[nH]c5n4)CC32)no1 (stereo not drawn) [Example 20, (3-(3-(benzo[d]thiazol-5-yl)-1H-pyrazolo[3,4-b]pyrazin-6-yl)-7-(5-methylisoxazol-3-yl)-3-azabicyclo[4.1.0]heptan-7-yl)methanamine]
> 6.30	> 6.00		NC[C@]1(c2ccccc2F)[C@@H]2CCN(c3cnc4c(-c5ccc6ncnn6c5)n[nH]c4n3)C[C@@H]21 [Example 327, ((1S,6R,7R)-3-(3-([1,2,4]triazolo[1,5-a]pyridin-6-yl)-1H-pyrazolo[3,4-b]pyrazin-6-yl)-7-(2-fluorophenyl)-3-azabicyclo[4.1.0]heptan-7-yl)methanamine]
> 6.30	> 6.00		NC[C@]1(c2ccccc2F)[C@@H]2CCN(c3cnc4c(-c5ccn6nccc6c5Cl)n[nH]c4n3)C[C@@H]21 [Example 438, ((1S,6R,7R)-3-(3-(4-chloropyrazolo[1,5-a]pyridin-5-yl)-1H-pyrazolo[3,4-b]pyrazin-6-yl)-7-(2-fluorophenyl)-3-azabicyclo[4.1.0]heptan-7-yl)methanamine]
> 6.30	> 6.00		Cc1c(-c2n[nH]c3nc(N4CC[C@@H]5[C@H](C4)[C@@]5(CN)c4c(F)cccc4F)cnc23)ccc2nn(C)cc12 [Example 106, ((1S,6R,7R)-7-(2,6-difluorophenyl)-3-(3-(2,4-dimethyl-2H-indazol-5-yl)-1H-pyrazolo[3,4-b]pyrazin-6-yl)-3-azabicyclo[4.1.0]heptan-7-yl)methanamine]
> 6.30	> 6.00		NC[C@]1(c2ccccc2F)[C@@H]2CCN(c3cnc4c(-c5ccc(O)c(F)c5)n[nH]c4n3)C[C@@H]21 [Example 331, 4-(6-((1S,6R,7R)-7-(aminomethyl)-7-(2-fluorophenyl)-3-azabicyclo[4.1.0]heptan-3-yl)-1H-pyrazolo[3,4-b]pyrazin-3-yl)-2-fluorophenol]
> 6.30	> 6.00		Cc1csc([C@@]2(CN)[C@@H]3CCN(c4cnc5c(-c6ccc7nn(C)c(Cl)c7c6Cl)n[nH]c5n4)C[C@@H]32)n1 [Example 445, ((1S,6R,7S)-3-(3-(3,4-dichloro-2-methyl-2H-indazol-5-yl)-1H-pyrazolo[3,4-b]pyrazin-6-yl)-7-(4-methylthiazol-2-yl)-3-azabicyclo[4.1.0]heptan-7-yl)methanamine]
> 6.30	> 6.00		NC[C@]1(c2ccccc2F)[C@@H]2CCN(c3cnc4c(-c5ccc6c(c5)NC(=O)CC6)n[nH]c4n3)C[C@@H]21 [Example 230, 7-(6-((1S,6R,7R)-7-(aminomethyl)-7-(2-fluorophenyl)-3-azabicyclo[4.1.0]heptan-3-yl)-1H-pyrazolo[3,4-b]pyrazin-3-yl)-3,4-dihydroquinolin-2(1H)-one]
> 6.30	> 6.00		Cn1ccc(C2(CN)C3CCN(c4cnc5c(-c6cccc(Cl)c6Cl)n[nH]c5n4)CC32)n1 (stereo not drawn) [Example 98, (3-(3-(2,3-dichlorophenyl)-1H-pyrazolo[3,4-b]pyrazin-6-yl)-7-(1-methyl-1H-pyrazol-3-yl)-3-azabicyclo[4.1.0]heptan-7-yl)methanamine]
> 6.30		> 6.00	Cc1csc([C@@]2(CN)[C@@H]3CN(c4cnc5c(-c6ccc7nc(C)sc7c6Cl)n[nH]c5n4)C[C@@H]32)n1 [Example 461]
> 6.30	> 6.00		NC[C@]1(c2ccccc2F)[C@@H]2CCN(c3cnc4c(-c5ccc6[nH]c(=O)[nH]c6c5)n[nH]c4n3)C[C@@H]21 [Example 239, 5-(6-((1S,6R,7R)-7-(aminomethyl)-7-(2-fluorophenyl)-3-azabicyclo[4.1.0]heptan-3-yl)-1H-pyrazolo[3,4-b]pyrazin-3-yl)-1,3-dihydro-2H-benzo[d]imidazol-2-one]
> 6.30	> 6.00		CN1C(=O)Cc2cc(-c3n[nH]c4nc(N5CC[C@@H]6[C@H](C5)[C@@]6(CN)c5ccccc5F)cnc34)ccc21 [Example 217, 5-(6-((1S,6R,7R)-7-(aminomethyl)-7-(2-fluorophenyl)-3-azabicyclo[4.1.0]heptan-3-yl)-1H-pyrazolo[3,4-b]pyrazin-3-yl)-1-methylindolin-2-one]
> 6.30	> 6.00		Cc1c(-c2n[nH]c3nc(N4CC[C@@H]5[C@H](C4)[C@@]5(CN)c4ccccc4C(F)(F)F)cnc23)ccc2nn(C)cc12 [Example 182, ((1S,6R,7R)-3-(3-(2,4-dimethyl-2H-indazol-5-yl)-1H-pyrazolo[3,4-b]pyrazin-6-yl)-7-(2-(trifluoromethyl)phenyl)-3-azabicyclo[4.1.0]heptan-7-yl)methanamine]
> 6.30	> 6.00		Cn1cc2c(Cl)c(-c3n[nH]c4nc(N5C[C@@H]6[C@H](C5)[C@@]6(CN)c5ccccc5F)cnc34)ccc2n1 [Example 499, ((1R,5S,6s)-3-(3-(4-chloro-2-methyl-2H-indazol-5-yl)-1H-pyrazolo[3,4-b]pyrazin-6-yl)-6-(2-fluorophenyl)-3-azabicyclo[3.1.0]hexan-6-yl)methanamine]
> 6.30	> 6.00		Cn1ccc2c(Cl)c(-c3n[nH]c4nc(N5CC[C@@H]6[C@H](C5)[C@@]6(CN)c5ccccc5F)cnc34)ccc2c1=O [Example 336, 6-(6-((1S,6R,7R)-7-(aminomethyl)-7-(2-fluorophenyl)-3-azabicyclo[4.1.0]heptan-3-yl)-1H-pyrazolo[3,4-b]pyrazin-3-yl)-5-chloro-2-methylisoquinolin-1(2H)-one]
> 6.30	> 6.00		COc1cccc2c(-c3n[nH]c4nc(N5CC[C@@H]6[C@H](C5)[C@@]6(CN)c5cc(C)on5)cnc34)ccnc12 [Example 125, ((1S,6R,7S)-3-(3-(8-methoxyquinolin-4-yl)-1H-pyrazolo[3,4-b]pyrazin-6-yl)-7-(5-methylisoxazol-3-yl)-3-azabicyclo[4.1.0]heptan-7-yl)methanamine]
> 6.30	> 6.00		NC[C@]1(c2cc(F)ccc2F)[C@@H]2CCN(c3cnc(Sc4ccnc(C5CC5)c4Cl)c(N)n3)C[C@@H]21 [Example 430, 6-((1S,6R,7R)-7-(aminomethyl)-7-(2,5-difluorophenyl)-3-azabicyclo[4.1.0]heptan-3-yl)-3-((3-chloro-2-cyclopropylpyridin-4-yl)thio)pyrazin-2-amine]
> 6.30	> 6.00		Cc1csc(C2(CN)C3CCN(c4cnc5c(-c6cccc7ccccc67)n[nH]c5n4)CC32)n1 (stereo not drawn) [Example 89, (7-(4-methylthiazol-2-yl)-3-(3-(naphthalen-1-yl)-1H-pyrazolo[3,4-b]pyrazin-6-yl)-3-azabicyclo[4.1.0]heptan-7-yl)methanamine]
> 6.30		> 6.00	COc1nccc(-c2n[nH]c3nc(N4C[C@@H]5[C@H](C4)C5(CN)c4nc(C)cs4)cnc23)c1Cl (stereo partly drawn) [Example 476]
> 6.30	> 6.00		Cn1cc2c(C(F)F)c(-c3n[nH]c4nc(N5CC[C@@H]6[C@H](C5)[C@@]6(CN)c5ccccc5F)cnc34)ccc2n1 [Example 202, ((1S,6R,7R)-3-(3-(4-(difluoromethyl)-2-methyl-2H-indazol-5-yl)-1H-pyrazolo[3,4-b]pyrazin-6-yl)-7-(2-fluorophenyl)-3-azabicyclo[4.1.0]heptan-7-yl)methanamine]
> 6.30	> 6.00		COc1ccc(-c2n[nH]c3nc(N4CC[C@@H]5[C@H](C4)[C@@]5(CN)c4cccc(F)c4F)cnc23)c2cccnc12 [Example 183, ((1S,6R,7R)-7-(2,3-difluorophenyl)-3-(3-(8-methoxyquinolin-5-yl)-1H-pyrazolo[3,4-b]pyrazin-6-yl)-3-azabicyclo[4.1.0]heptan-7-yl)methanamine]
